Paper PMC5473904, “Epigenetic and antitumor effects of platinum(IV)-octanoato conjugates” (Scientific Reports, 2017)

Columns and labels:
[1] = log P (octanol/water) by shake flask method; assay type: physicochemical; conditions: 0.2 M aqueous NaCl
Experimental: To quantify the hydrophobicity of the platinum complexes, the shake-flask method was used to measure partition coefficients (log P) values for octanol/water.
To determine the partition coefficient (P) the shake flask method was used. Octanol-saturated water (OSW) and water-saturated octanol (WSO) were prepared using analytical grade octanol and 0.2 M aqueous NaCl solution (to suppress hydrolysis of the chlorido complexes). […] Mixing was done by vortexing for 30 min at room temperature to establish the partition equilibrium. To separate the phases, centrifugation was done at 3000 g for 5 min. The aqueous layer was carefully separated from the octanol layer for platinum analysis. Platinum was quantified from aliquots taken from the octanol-saturated aqueous samples before and after partition by ICP-MS.

[2] = Biodistribution of platinum after oral administration (ICP-MS); assay type: in vivo, C57BL mice; conditions: LLC-bearing mice; for Percentage of the administered drug reaching the tumor mass / Tissue platinum distribution: single oral dose 20 mg kg-1, 4 h; for Platinum concentration in blood: whole blood, single oral dose 20 mg kg-1, 1 and 4 h
Source text: It was previously shown for a similar series of dicarboxylato Pt(IV) compounds that organic chains of intermediate length offer the best compromise between lipophilicity and water solubility for oral administration. […] The details of these experiments and their results are described in the Supplementary material and Supplementary Fig. S2. […] In contrast, platinum scarcely accumulated in intestine and lung. Noteworthy, a slightly higher platinum content was found in the tumor mass in the mice treated with Pt(IV)diOA than in those treated with Pt(IV)diVPA. […]
Biodistribution after oral administration
For Pt(IV) complexes having axial carboxylato ligands, the lipophilicity increases as the number of carbon atoms in the chain increases. This lipophilicity increase offers a beneficial effect on the cellular accumulation and in vitro cytotoxic potency up to a point where the drop in water solubility impedes the administration of the drugs (around C8-C10 carbon chains)1,2.
Moreover, excessive lipophilicity can hinder transport of such Pt(IV) derivatives in vivo across intestinal epithelial cells making them more vulnerable to hepatic metabolism.
It was previously shown for a similar series of dicarboxylato Pt(IV) compounds (except the VPA-derivative) that organic chains of intermediate length offer the best compromise between lipophilicity and water solubility for oral administration3. To better understand the biodistribution properties of the Pt(IV) complexes, following administered by oral gavage in a -1 single dose (20 mg kg ), tissue samples collected from LLC-bearing mice were analyzed by ICP-MS. After 1 and 4 h, blood samples were collected and subsequently animals were sacrificed, and tissue samples were collected. The platinum levels in tumor, kidney, liver, intestine, lung and whole blood aliquots are shown in Fig. S2, panels A and B. It is important to recall that using this protocol it is possible to estimate only the overall Pt content and not its oxidation state or speciation [i.e. Pt(IV) metabolites or Pt(II) metabolites produced by reduction and further interactions]. […]
Biodistribution after oral administration. For in vivo kinetic experiments, 8-10 week old C57BL mice (24 ± 3 g body weight) received the drugs as an oral gavage single dose of -1 butanoato, hexanoato, octanoato and valproate Pt(IV) complexes (20 mg kg , dissolved in a vehicle solution composed of 20% Cremophor EL (v/v), 20% PEG400 (v/v) and 60% saline solution (v/v)). At each time point (1 and 4 h, respectively), animals were anesthetized, and blood was collected by a vain tail puncture. In addition, samples of organs (kidney, liver, lung and intestine) and tumor were collected at 4 h and stored at −20 °C. Blood, organ samples and tumor were subjected to quantitative determination of platinum content.−1 The samples were treated with highly pure nitric acid ([Pt] ≤ 0.01 μg kg TraceSELECT Ultra, Sigma Chemical Co.) and transferred into a microwave Teflon vessel. Subsequently, samples were submitted to the standard procedure using a speed microwave. After cooling, each mineralized sample was analyzed for platinum by ICP-MS (ThermoOptek X Series 2). Instrumental settings were optimized to achieve maximum sensitivity for platinum. For quantitative determination, the most abundant isotopes of platinum and indium (used as internal standard) were measured at m/z 195 and 115, respectively.
Accumulation of platinum in tumor cells treated with Pt(IV) complexes and cisplatin (in cellulo experiments) in the absence of serum. A2780 cells were seeded in 10 mm Petri dishes and treated with the platinum complexes (10 μM) for 4 h in complete medium, i.e. + 10 % FBS (HyClone, GE Healthcare). At time zero, 100 μL of medium was taken out from each sample to check the extracellular Pt concentration. At the end of the exposure, cells were washed three times with phosphate-buffered saline (PBS), detached from the Petri dishes using 0.05% Trypsin 1X + 2% EDTA (HyClone, GE Healthcare) and harvested in fresh […]

[3] = system: DNA methylation in HCT-116 cells; assay: DNA methylation analysis (Imprint methylated DNA quantification kit); assay type: cell-based, human; conditions: HCT-116, 30 µM, 72 h
Experimental: Human colon adenocarcinoma cells HCT-116 were chosen as the model cellular system suitable for DNA methylation analysis because: (i) this human colorectal cancer cell line has been used as a prototypic model for analyses of the genetic basis of cancer, and the role of epigenetic changes in tumorigenesis; (ii) they have a propensity to both global DNA hypomethylation and to silence genes through promoter focal hypermethylation, [21]. HCT-116 cells were treated with the compounds at the concentrations indicated in Fig. 4A for 24 or 72 h and DNA was isolated for the complete methylation analysis as described in the experimental section. Decitabine (5-aza-2′-deoxycytidine), a hypomethylating agent which hypomethylates DNA by inhibiting DNMT, was used in these experiments as a […]. The IC50 values found for this agent in HCT-116 cells (the drug-treatment period was 72 h) was (7.5 ± 0.3) µM (Table 1).
Figure 4 Analysis of DNA methylation. (A) DNA was isolated from HCT-116 cells after the exposure to the agents at the concentrations indicated in the graph for 24 or 72 h. The levels of DNA methylation in the control was taken as 100%. The bars represent mean values from three independent experiments each performed in octuplicate. The error bars are the SDs. (B) DNMT activity in colon carcinoma cells HCT-116 treated for 24 h with the compounds tested in the present work. The DNMT activity in the control, untreated cells was taken as 100%. Error bars are the SDs and the stars at the top of bars denote a significant difference from the control with (*p < 0.05; **p < […]), calculated using […] student’s t-test. The bars represent mean values from three independent experiments, each performed in quadruplicate.
Human colon carcinoma cells (HCT-116) were seeded at the density 1.5 × 10^6 cells/dish. […] The DNA content in each sample was determined by UV spectrophotometry. DNA (200 ng) from the samples was loaded to the Imprint methylated DNA quantification kit (Sigma-Aldrich, USA). The level of methylated DNA was proportional to the absorbance measured at 450 nm.

Row | SMILES | log P [1] | Percentage of the administered drug reaching the tumor mass [2] | Tissue platinum distribution [2] | Platinum concentration in blood [2] | Change of DNA methylation [3]
1 | CC(=O)[O][Pt]([NH2])([NH2])([Cl])([Cl])[O]C(C)=O [Pt(IV)diAc, cis, cis, trans-[Pt(IV)(NH3)2Cl2(Ac)2]] | −1.85 ± 0.09 | – | – | – | –
2 | CCCCCCCC(=O)[O][Pt]([NH2])([NH2])([Cl])([Cl])[O]C(=O)CCCCCCC [Pt(IV)diOA, cis, cis, trans-[Pt(IV)(NH3)2Cl2(OA)2]] | – | about 18% | the highest platinum concentrations were found in liver followed by tumor tissue and kidney | around 0.5 μg Pt mL^−1 | –
3 | CCCC(CCC)C(=O)[O][Pt]([NH2])([NH2])([Cl])([Cl])[O]C(=O)C(CCC)CCC [Pt(IV)diVPA, cis, cis, trans-[Pt(IV)(NH3)2Cl2(VPA)2]] | – | ~10% | the highest platinum concentrations were found in liver followed by tumor tissue and kidney | around 0.5 μg Pt mL^−1 | –
4 | N.N.[Cl][Pt][Cl] [cisplatin, reference compound] | – | – | – | – | non-significant change
